Our source for the EC50 and IC50 values is patent US20230159511A1, “TETRAHYDROISOQUINOLINE COMPOUNDS AS NRF2 ACTIVATORS” (C4X Discovery Limited, priority 2020, published 2023).

The structures appear in SMILES notation.

The term EC50 denotes the concentration that produces a half-maximal response. As usually defined, the IC50 is the point on the concentration scale where inhibition reaches its midpoint.

For test [1], the system named is NRF2 mediated gene NAD(P)H:quinone acceptor oxidoreductase 1 (NQO1) in BEAS-2B cells. Put plainly: Beas2B NQO1 mRNA Cell Based Assay. Details: species or system human. As to conditions: Homo sapiens; BEAS-2B cells, compound for 24 h; increase in NQO1 mRNA compared to vehicle (0.1% DMSO) control; read-out: EC50. The essentials: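 BEAS-2B cells treated 24 h with compound; NQO1 mRNA measured by one-step TaqMan RT-PCR on crude lysates, normalised to beta actin by ΔΔCT. Fold increase over 0.1% DMSO vehicle; EC50 from four-parameter logistic fit.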

Test [2] concerns the target T1, human KEAP1 (N-term, residues 321-609) (Homo sapiens, UniProt Q14145).
T1 construct: human KEAP1 (N-term, residues 321-609)
Put plainly: KEAP1 Kelch Fluorescence Polarization (FP) Assay. As to conditions: inhibition of Kelch domain-NRF2 interaction; 2 nM FITC-labelled NRF2 peptide, 25 nM KEAP1, 1 h room temperature; compounds below 10 nM cannot be differentiated. In kind it is binding. The essentials: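 FP competition: 2 nM FITC-NRF2 peptide (LDEETGEFL) with 25 nM KEAP1 Kelch domain, pH 8.0 Tris buffer, 0.5% DMSO, 1 h at room temperature; 12-point 1:3 dilutions from 10 μM.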

T1 sequence (Q14145 321-609): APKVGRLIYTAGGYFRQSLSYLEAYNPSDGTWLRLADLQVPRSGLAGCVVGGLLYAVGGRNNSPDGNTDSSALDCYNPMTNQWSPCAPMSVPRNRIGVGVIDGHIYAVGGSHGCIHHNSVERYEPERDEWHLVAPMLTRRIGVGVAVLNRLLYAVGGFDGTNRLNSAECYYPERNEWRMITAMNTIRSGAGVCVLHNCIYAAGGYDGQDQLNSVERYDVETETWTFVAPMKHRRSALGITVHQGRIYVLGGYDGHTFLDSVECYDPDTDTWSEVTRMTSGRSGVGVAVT

In the case of `CNC(=O)[C@@]1(C)CCCC[C@H]1C(=O)N1CCc2c(Cl)ccc(OCc3nnn(C)c3C3CC3)c2[C@H]1CN1CC2(CC2)CC1=O` [Example 103, (1S,2R)-2-((S)-5-chloro-8-((5-cyclopropyl-1-methyl-1H-1,2,3-triazol-4-yl)methoxy)-1-((6-oxo-5-azaspiro[2.4]heptan-5-yl)methyl)-1,2,3,4-tetrahydroisoquinoline-2-carbonyl)-N,1-dimethylcyclohexane-1-carboxamide], the EC50 in test [1] worked out at 57 nM. Also, inhibition in test [2] was half-maximal at 7.1 nM (IC50).

In the case of `CNC(=O)[C@@]1(C)CCCC[C@H]1C(=O)N1CCc2c(Cl)ccc(OCc3cn(C)nn3)c2[C@H]1CN1C[C@H](C)CC1=O` [Example 104, (1S,2R)-2-((S)-5-chloro-8-((1-methyl-1H-1,2,3-triazol-4-yl)methoxy)-1-(((R)-4-methyl-2-oxopyrrolidin-1-yl)methyl)-1,2,3,4-tetrahydroisoquinoline-2-carbonyl)-N,1-dimethylcyclohexane-1-carboxamide], in test [1], the EC50 amounted to 784 nM. Moreover, in test [2], the midpoint of inhibition, the IC50, lay at 11 nM.

On to `CNC(=O)[C@@]1(C)CCCC[C@H]1C(=O)N1CCc2c(Cl)ccc(OCc3nnn(C)c3COC)c2[C@H]1CN1C[C@H](C)CC1=O` [Example 105, (1S,2R)-2-((S)-5-chloro-8-((5-(methoxymethyl)-1-methyl-1H-1,2,3-triazol-4-yl)methoxy)-1-(((R)-4-methyl-2-oxopyrrolidin-1-yl)methyl)-1,2,3,4-tetrahydroisoquinoline-2-carbonyl)-N,1-dimethylcyclohexane-1-carboxamide], for which the EC50 in test [1] is 790 nM. In test [2], the IC50 worked out at 17 nM.

On to `CNC(=O)[C@@]1(C)CCCC[C@H]1C(=O)N1CCc2c(Cl)cc(F)c(OCc3nnn(C)c3C(F)F)c2[C@H]1CN1CC2(CC2)CC1=O` [Example 106, (1S,2R)-2-((S)-5-chloro-8-((5-(difluoromethyl)-1-methyl-1H-1,2,3-triazol-4-yl)methoxy)-7-fluoro-1-((6-oxo-5-azaspiro[2.4]heptan-5-yl)methyl)-1,2,3,4-tetrahydroisoquinoline-2-carbonyl)-N,1-dimethylcyclohexane-1-carboxamide], for which the EC50 in test [1] was determined as 25 nM. Moreover, in test [2], 6.7 nM corresponded to half-maximal inhibition (IC50).

In the case of `Cn1nnc(COc2c(F)cc(Cl)c3c2[C@@H](CN2CC4(CC4)CC2=O)N(C(=O)[C@@H]2CCCC[C@]2(C)C(N)=O)CC3)c1C(F)F` [Example 107, (1S,2R)-2-((S)-5-chloro-8-((5-(difluoromethyl)-1-methyl-1H-1,2,3-triazol-4-yl)methoxy)-7-fluoro-1-((6-oxo-5-azaspiro[2.4]heptan-5-yl)methyl)-1,2,3,4-tetrahydroisoquinoline-2-carbonyl)-1-methylcyclohexane-1-carboxamide], in test [1], the EC50 turned out to be 37 nM. In test [2], this molecule had an IC50 of 6.2 nM.

Consider `CNC(=O)[C@@]1(C)CCCC[C@H]1C(=O)N1CCc2c(Cl)cc(F)c(OCc3nnn(C)c3C(F)F)c2[C@H]1CN1CCOCC1=O` [Example 108, (1S,2R)-2-((S)-5-chloro-8-((5-(difluoromethyl)-1-methyl-1H-1,2,3-triazol-4-yl)methoxy)-7-fluoro-1-((3-oxomorpholino)methyl)-1,2,3,4-tetrahydroisoquinoline-2-carbonyl)-N,1-dimethylcyclohexane-1-carboxamide], for which, in test [1], the 50% effective concentration (EC50) is 654 nM. Moreover, the IC50 in test [2] was 7.3 nM.

`CNC(=O)[C@@]1(C)CCCC[C@H]1C(=O)N1CCc2c(Cl)cc(F)c(OCc3nnn(C)c3C(F)F)c2[C@H]1CN1CCCC1=O` [Example 109, (1S,2R)-2-((S)-5-chloro-8-((5-(difluoromethyl)-1-methyl-1H-1,2,3-triazol-4-yl)methoxy)-7-fluoro-1-((2-oxopyrrolidin-1-yl)methyl)-1,2,3,4-tetrahydroisoquinoline-2-carbonyl)-N,1-dimethylcyclohexane-1-carboxamide]: the 50% effective concentration (EC50) in test [1] was 140 nM. Also, the midpoint of inhibition in test [2], the IC50, lay at 7.5 nM.

Regarding `CNC(=O)[C@@]1(C)CCCC[C@H]1C(=O)N1CCc2c(Cl)cc(F)c(OCc3cn(C)nn3)c2[C@H]1CN1CC2(CC2)CC1=O` [Example 110, (1S,2R)-2-((S)-5-chloro-7-fluoro-8-((1-methyl-1H-1,2,3-triazol-4-yl)methoxy)-1-((6-oxo-5-azaspiro[2.4]heptan-5-yl)methyl)-1,2,3,4-tetrahydroisoquinoline-2-carbonyl)-N,1-dimethylcyclohexane-1-carboxamide], the EC50 in test [1] was 66 nM. The molecule further yielded an IC50 in test [2] of 7.1 nM.

As for `C[C@]1(C(N)=O)CCCC[C@H]1C(=O)N1CCc2c(Cl)cc(F)c(OCc3nnn4c3CCCC4)c2[C@H]1CN1CC2(CC2)CC1=O` [Example 111, (1S,2R)-2-((S)-5-chloro-7-fluoro-1-((6-oxo-5-azaspiro[2.4]heptan-5-yl)methyl)-8-((4,5,6,7-tetrahydro-[1,2,3]triazolo[1,5-a]pyridin-3-yl)methoxy)-1,2,3,4-tetrahydroisoquinoline-2-carbonyl)-1-methylcyclohexane-1-carboxamide], in test [1], the EC50 was determined as 30 nM. In addition, the 50% inhibitory concentration (IC50) in test [2] worked out at 7.2 nM.

Consider `Cc1c(COc2c(F)cc(Cl)c3c2[C@@H](CN2CC4(CC4)CC2=O)N(C(=O)[C@@H]2CCCC[C@]2(C)C(N)=O)CC3)nnn1C` [Example 112, (1S,2R)-2-((S)-5-chloro-8-((1,5-dimethyl-1H-1,2,3-triazol-4-yl)methoxy)-7-fluoro-1-((6-oxo-5-azaspiro[2.4]heptan-5-yl)methyl)-1,2,3,4-tetrahydroisoquinoline-2-carbonyl)-1-methylcyclohexane-1-carboxamide], for which the EC50 in test [1] came out at 99 nM. Also, the IC50 in test [2] turned out to be 7 nM.

As to `CNC(=O)[C@@]1(C)CCCC[C@H]1C(=O)N1CCc2c(Cl)ccc(OCc3nnn(C)c3C3CC3)c2[C@H]1CN1C[C@H](C)CC1=O` [Example 113, (1S,2R)-2-((S)-5-chloro-8-((5-cyclopropyl-1-methyl-1H-1,2,3-triazol-4-yl)methoxy)-1-(((R)-4-methyl-2-oxopyrrolidin-1-yl)methyl)-1,2,3,4-tetrahydroisoquinoline-2-carbonyl)-N,1-dimethylcyclohexane-1-carboxamide], the concentration giving a half-maximal response (EC50) in test [1] was determined as 299 nM. This molecule registered an IC50 in test [2] of 10.9 nM.

For the molecule `CNC(=O)[C@H]1CCCC[C@H]1C(=O)N1CCc2c(Cl)ccc(OCc3nnn(C)c3C(F)F)c2[C@H]1CN1CC2(CC2)CC1=O` [Example 114, (1S,2R)-2-((S)-5-chloro-8-((5-(difluoromethyl)-1-methyl-1H-1,2,3-triazol-4-yl)methoxy)-1-((6-oxo-5-azaspiro[2.4]heptan-5-yl)methyl)-1,2,3,4-tetrahydroisoquinoline-2-carbonyl)-N-methylcyclohexane-1-carboxamide], in test [1], the concentration giving a half-maximal response (EC50) turned out to be 230 nM. The molecule further gave an IC50 in test [2] of 9.1 nM.
